Tests used:
[1] = Caco-2 cell monolayer membrane transport assay; details: human, A-B; for Papp A→B: Caco-2, Papp A-B; for recovery: Caco-2, Recovery rate in mass
Description: Caco-2 Cell Monolayer Membrane Transport Assay
Human-derived colorectal adenocarcinoma cell line Caco-2 cell monolayer model was used to study the bidirectional transport of the target compounds from the apical (AP) side to the basolateral (BL) side and from BL side to AP side. HPLC was used for quantitative analysis to calculate transport parameters, apparent permeability coefficient (Papp) and the efflux ratio.

BGC-823 gastric cancer = assay: MTT assay, proliferation inhibition; format: cell-based; details: Homo sapiens, read-out: Proliferation inhibition rate
Description: (§1) 1. Cytotoxicity Assay Using Human Tumor Cell Lines
(§2) Paclitaxel was used as the positive drug.

HCT 116 colon cancer = assay: MTT assay, proliferation inhibition; format: cell-based; details: Homo sapiens, read-out: Proliferation inhibition rate
Description: as §1, §2

[2] = MTT assay, proliferation inhibition; format: cell-based; details: Homo sapiens, LN-18 gastric cancer, read-out: Proliferation inhibition rate
Description: as §1, §2

HT29 colon cancer = assay: MTT assay, proliferation inhibition; format: cell-based; details: Homo sapiens, HT-29, read-out: Proliferation inhibition rate
Description: as §1, §2

[3] = tested on: NCI-H460 non-small cell lung cancer; assay: MTT assay, proliferation inhibition; format: cell-based; details: Homo sapiens, read-out: Proliferation inhibition rate
Description: as §1, §2

[4] = tested on: A549 non-small cell lung cancer; assay: MTT assay, proliferation inhibition; format: cell-based; details: Homo sapiens, read-out: Proliferation inhibition rate
Description: as §1, §2

DU145 prostate cancer = assay: MTT assay, proliferation inhibition; format: cell-based; details: Homo sapiens, DU-145, read-out: Proliferation inhibition rate
Description: as §1, §2

HeLa cervical cancer = assay: MTT assay, proliferation inhibition; format: cell-based; details: Homo sapiens, read-out: Proliferation inhibition rate
Description: as §1, §2

HL60 leukemia = assay: MTT assay, proliferation inhibition; format: cell-based; details: Homo sapiens, HL-60, read-out: Proliferation inhibition rate
Description: as §1, §2

A375 melanoma = assay: MTT assay, proliferation inhibition; format: cell-based; details: Homo sapiens, A-375, read-out: Proliferation inhibition rate
Description: as §1, §2

B16 melanoma = assay: MTT assay, proliferation inhibition; format: cell-based; details: read-out: Proliferation inhibition rate
Description: as §1, §2

MCF-7 breast cancer = assay: MTT assay, proliferation inhibition; format: cell-based; details: Homo sapiens, MCF7, read-out: Proliferation inhibition rate
Description: as §1, §2

A2780 ovarian cancer = assay: MTT assay, proliferation inhibition; format: cell-based; details: Homo sapiens, read-out: Proliferation inhibition rate
Description: as §1, §2

MDA-MB-436 breast cancer = assay: MTT assay, proliferation inhibition; format: cell-based; details: Homo sapiens, read-out: Proliferation inhibition rate
Description: as §1, §2

LNCaP prostate cancer = assay: MTT assay, proliferation inhibition; format: cell-based; details: Homo sapiens, read-out: Proliferation inhibition rate
Description: as §1, §2

K562 leukemia = assay: MTT assay, proliferation inhibition; format: cell-based; details: Homo sapiens, read-out: Proliferation inhibition rate
Description: as §1, §2

[5] = tested on: breast cancer cell line MCF-7; assay: IC50 values on breast cancer cell line MCF-7; format: cell-based; details: Homo sapiens, MCF7, 72 h, read-out: MCF-7(IC50, nM)
Description: From the activity evaluation data of the above-mentioned preliminary screen, it can be seen that the series of taxanes derivatives synthesized in the present invention have activity (although the activity of PCMI-43 is weakened). Afterward, most of the compounds are picked up from these derivatives to examine their IC50 values on breast cancer cell line MCF-7. Paclitaxel is used as the positive control drug. Experiments for each compound were independently repeated for three times and multiple holes were used in each experiment. The exposure time of drugs was 72 hours.

[6] = Mean, Caco-2, mean of two samples

Row | Structure (SMILES) | Papp A→B ([1]; Sample-01, Caco-2, Sample-01) | Papp A→B ([1]; Sample-02, Caco-2, Sample-02) | recovery [1, 6] | recovery ([1]; Sample-01, Caco-2, Sample-01) | recovery ([1]; Sample-02, Caco-2, Sample-02) | inhibition at 1 µM (BGC-823 gastric cancer) | inhibition at 1 µM (HCT 116 colon cancer) | inhibition at 1 µM [2] | inhibition at 1 µM (HT29 colon cancer) | inhibition at 1 µM [3] | inhibition at 1 µM [4] | inhibition at 1 µM (DU145 prostate cancer) | inhibition at 1 µM (HeLa cervical cancer) | inhibition at 1 µM (HL60 leukemia) | inhibition at 1 µM (A375 melanoma) | inhibition at 1 µM (B16 melanoma) | inhibition at 1 µM (MCF-7 breast cancer) | inhibition at 1 µM (A2780 ovarian cancer) | inhibition at 1 µM (MDA-MB-436 breast cancer) | inhibition at 1 µM (LNCaP prostate cancer) | other results
1 | CO[C@H]1C[C@H]2OC[C@@]2(OC(C)=O)[C@H]2[C@H](OC(=O)c3ccccc3)[C@]3(O)C[C@H](OC(=O)[C@H](O)[C@@H](NC(=O)c4ccccc4)c4ccccc4)C(C)=C([C@@H](OC(=O)N(C)C)C(=O)[C@]12C)C3(C)C [PCMI-23] | 3.21 ×10⁻⁶ cm/s | 2.68 ×10⁻⁶ cm/s | 87.1% | 100% | 74% | 94.5% | 78.3% | 96.3% | 87.9% | 83.3% | 77.8% | 84.8% | 99.8% | 97.2% | 87.7% | 80.8% | 93.5% | 94.8% | 84.8% | 81.8% | inhibition at 1 µM (K562 leukemia): 93.8%
2 | CO[C@H]1C[C@H]2OC[C@@]2(OC(C)=O)[C@H]2[C@H](OC(=O)c3ccccc3)[C@]3(O)C[C@H](OC(=O)[C@H](O)[C@@H](NC(=O)OC(C)(C)C)c4ccccn4)C(C)=C([C@@H](OC(=O)N(C)C)C(=O)[C@]12C)C3(C)C [PCMI-24] | 2.93 ×10⁻⁶ cm/s | 3.1 ×10⁻⁶ cm/s | 100% | 106% | 94.8% | 93.5% | 81.1% | 94% | 88.1% | 83.6% | 73.8% | 84.7% | 100% | 98.1% | 86.8% | 78.9% | 82.3% | 95.5% | 76.3% | 81.1% | inhibition at 1 µM (K562 leukemia): 92.2%
3 | COC(=O)O[C@H]1C(=O)[C@]2(C)[C@@H](OC)C[C@H]3OC[C@@]3(OC(C)=O)[C@H]2[C@H](OC(=O)c2ccccc2)[C@]2(O)C[C@H](OC(=O)[C@H](O)[C@@H](NC(=O)c3ccccc3)c3ccccc3)C(C)=C1C2(C)C [PCMI-27] | 4.44 ×10⁻⁶ cm/s | 4.31 ×10⁻⁶ cm/s | 95.6% | 99.3% | 91.9% | 94.1% | 78.3% | 96.3% | 87.3% | 80.4% | 74.8% | 83.3% | 99.5% | 97.4% | 103% | 79.2% | 95.3% | 94.1% | 83.3% | 82.6% | inhibition at 1 µM (K562 leukemia): 94.5%
4 | COC(=O)O[C@H]1C(=O)[C@]2(C)[C@@H](OC)C[C@H]3OC[C@@]3(OC(C)=O)[C@H]2[C@H](OC(=O)c2ccccc2)[C@]2(O)C[C@H](OC(=O)[C@H](O)[C@@H](NC(=O)N(C)C)c3ccccc3)C(C)=C1C2(C)C [PCMI-29] | 9.53 ×10⁻⁶ cm/s | 7.33 ×10⁻⁶ cm/s | 99.4% | 102% | 97% | 90.8% | 68.7% | 97.7% | 81.7% | 85.2% | 78.1% | 86.7% | 97.3% | 96.8% | 92.8% | 80.6% | 91.3% | 92.5% | 75.7% | 84.3% | Papp A→B [1, 6]: 8.43 ×10⁻⁶ cm/s; inhibition at 1 µM (K562 leukemia): 90.8%
5 | CCSC(=O)O[C@H]1C(=O)[C@]2(C)[C@@H](OC)C[C@H]3OC[C@@]3(OC(C)=O)[C@H]2[C@H](OC(=O)c2ccccc2)[C@]2(O)C[C@H](OC(=O)[C@H](O)[C@@H](NC(=O)OC(C)(C)C)c3ccccc3)C(C)=C1C2(C)C [PCMI-30] | 5.78 ×10⁻⁶ cm/s | 3.59 ×10⁻⁶ cm/s | 76.5% | 70.4% | 82.6% | 94.9% | 65.5% | 95% | 87.8% | 85.8% | 75.8% | 90.3% | 101% | 98.5% | 96.9% | 81.7% | 95.8% | 95.6% | 81.3% | 86.2% | Papp A→B [1, 6]: 4.68 ×10⁻⁶ cm/s; inhibition at 1 µM (K562 leukemia): 92.6%
6 | CO[C@H]1C(=O)[C@]2(C)[C@@H](OC(=O)N(C)C)C[C@H]3OC[C@@]3(OC(C)=O)[C@H]2[C@H](OC(=O)c2ccccc2)[C@]2(O)C[C@H](OC(=O)[C@H](O)[C@@H](NC(=O)c3ccccc3)c3ccccc3)C(C)=C1C2(C)C [PCMI-32] | 3.16 ×10⁻⁶ cm/s | 3.38 ×10⁻⁶ cm/s | 81.9% | 82.1% | 81.6% | 95.1% | 57.7% | 92.2% | 89.8% | 86.6% | 74.5% | 87.5% | 103% | 97.8% | 90.4% | 77.8% | 102% | 95.8% | 74.4% | 83.4% | IC50 [5]: 64.67 ± 0.18 nM; inhibition at 1 µM (K562 leukemia): 91%
7 | CO[C@H]1C(=O)[C@]2(C)[C@@H](OC(=O)N(C)C)C[C@H]3OC[C@@]3(OC(C)=O)[C@H]2[C@H](OC(=O)c2ccccc2)[C@]2(O)C[C@H](OC(=O)[C@H](O)[C@@H](NC(=O)OC(C)(C)C)c3ccccn3)C(C)=C1C2(C)C [PCMI-33] | 4.27 ×10⁻⁶ cm/s | 4.54 ×10⁻⁶ cm/s | 94.9% | 95.8% | 94% | 94.1% | 56% | 93.2% | 89.1% | 87.8% | 74.1% | 86.3% | 103% | 97.8% | 90.3% | 81.8% | 83.5% | 94.7% | 76.2% | 83.6% | IC50 [5]: 46.63 ± 0.14 nM; inhibition at 1 µM (K562 leukemia): 91.1%
8 | COC(=O)O[C@H]1C[C@H]2OC[C@@]2(OC(C)=O)[C@H]2[C@H](OC(=O)c3ccccc3)[C@]3(O)C[C@H](OC(=O)[C@H](O)[C@@H](NC(=O)c4ccccc4)c4ccccc4)C(C)=C([C@@H](OC)C(=O)[C@]12C)C3(C)C [PCMI-37] | 3.23 ×10⁻⁶ cm/s | 3.41 ×10⁻⁶ cm/s | 80.6% | 81.2% | 80% | 95.7% | 67.4% | 98.3% | 89.7% | 89.5% | 80% | 88.5% | 102% | 97% | 97.4% | 85.3% | 103% | 96.4% | 86.1% | 85.5% | inhibition at 1 µM (K562 leukemia): 94.5%
9 | COC(=O)O[C@H]1C[C@H]2OC[C@@]2(OC(C)=O)[C@H]2[C@H](OC(=O)c3ccccc3)[C@]3(O)C[C@H](OC(=O)[C@H](O)[C@@H](NC(=O)OC(C)(C)C)c4ccccn4)C(C)=C([C@@H](OC)C(=O)[C@]12C)C3(C)C [PCMI-38] | 4.71 ×10⁻⁶ cm/s | 4.35 ×10⁻⁶ cm/s | 121% | 122% | 120% | 95.7% | 64% | 96.6% | 89.8% | 88.7% | 80.3% | 89.2% | 102% | 97.4% | 88.3% | 83.3% | 106% | 96.5% | 85.9% | 82.4% | inhibition at 1 µM (K562 leukemia): 94.7%
